Consider eleven compounds from US11446287B2, “Compounds and methods for EP300 or CBP modulation and indications therefor” (Opna Immuno-Oncology SA, priority 2019, dated 2022).

In general, IC50 refers to the concentration needed to halve the response being measured.

For the assay, the target named is T1, Recombinant human BRD4 containing dual bromodomains (BRD4-BD12 (1-477)) (Homo sapiens, UniProt O60885).
T1 construct: Recombinant human BRD4 containing dual bromodomains (BRD4-BD12 (1-477)); made in house; host or cells: E. coli BL21-CodonPlus (DE3), modified pET vector
In words: BRD4 Alphascreen binding assay. The gist of the method: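 AlphaScreen proximity between Ni-chelate-bound BRD4-BD12 (1-477) and streptavidin-captured H4 K5/K8/K12/K16-acetyl peptide measured after 1 h room-temperature compound incubation and 30 min with 7.5 μg/ml beads. Buffer: 50 mM HEPES pH 7.5, 50 mM NaCl, 0.01% BSA, 0.01% Triton X-100; data plate-normalized and four-parameter fit for IC50.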
(Bead proximity is the source of the signal in Alpha formats.)
Turning to `Cc1noc(C)c1-c1cnc2c(c1)c(-c1c(Cl)cc(C(=O)O)cc1OC1CCC1)cn2C1CCOCC1` [P-0358, 3-chloro-5-cyclobutoxy-4-(5-(3,5-dimethylisoxazol-4-yl)-1-(tetrahydro-2H-pyran-4-yl)-1H-pyrrolo[2,3-b]pyridin-3-yl)benzoic acid], the IC50 is 1 to 8 µM.

For the compound `Cc1noc(C)c1-c1cnc2c(c1)c(-c1c(Cl)cc(C(=O)O)cc1OCC(F)F)cn2C1CCOCC1` [P-0359, 3-chloro-5-(2,2-difluoroethoxy)-4-(5-(3,5-dimethylisoxazol-4-yl)-1-(tetrahydro-2H-pyran-4-yl)-1H-pyrrolo[2,3-b]pyridin-3-yl)benzoic acid], the IC50 lay within 8 to 1000 µM.

Turning to `CCOc1cc(C(=O)O)c(F)cc1-c1cn([C@H]2CCOC2)c2ncc(-c3c(C)noc3C)cc12` [P-0360, (S)-4-(5-(3,5-dimethylisoxazol-4-yl)-1-(tetrahydrofuran-3-yl)-1H-pyrrolo[2,3-b]pyridin-3-yl)-5-ethoxy-2-fluorobenzoic acid], the concentration for half-maximal inhibition (IC50) lay in the range of 8 to 1000 µM.

Take `Cc1noc(C)c1-c1cnc2c(c1)c(-c1c(Cl)cc(C(=O)O)cc1OC1CCC1)cn2[C@H]1CCOC1` [P-0361, (S)-3-chloro-5-cyclobutoxy-4-(5-(3,5-dimethylisoxazol-4-yl)-1-(tetrahydrofuran-3-yl)-1H-pyrrolo[2,3-b]pyridin-3-yl)benzoic acid]: the IC50 fell in the range of 8 to 1000 µM.

As for `COc1cc(C(=O)O)ncc1-c1cn(C2CCOCC2)c2ncc(-c3c(C)noc3C)cc12` [P-0362, 5-(5-(3,5-dimethylisoxazol-4-yl)-1-(tetrahydro-2H-pyran-4-yl)-1H-pyrrolo[2,3-b]pyridin-3-yl)-4-methoxypicolinic acid], the IC50 was in the range of 0.0001 to 1 µM.

Consider `Cc1noc(C)c1-c1cnc2c(c1)c(-c1c(Cl)cc(C(=O)O)cc1OC1CC1)cn2C(C1CC1)C1CC1` [P-0363, 3-chloro-5-cyclopropoxy-4-(1-(dicyclopropylmethyl)-5-(3,5-dimethylisoxazol-4-yl)-1H-pyrrolo[2,3-b]pyridin-3-yl)benzoic acid], for which the IC50 was 1 to 8 µM.

As for `Cc1noc(C)c1-c1cnc2c(c1)c(-c1ccc(C(=O)O)cc1OC(F)(F)F)cn2CC1(C#N)CCC1` [P-0364, 4-(1-((1-cyanocyclobutyl)methyl)-5-(3,5-dimethylisoxazol-4-yl)-1H-pyrrolo[2,3-b]pyridin-3-yl)-3-(trifluoromethoxy)benzoic acid], the IC50 fell in the range of 1 to 8 µM.

Turning to `Cc1nn(CC(C)(C)O)cc1-n1cc(-c2ccc(C(=O)O)cc2OC(F)(F)F)c2cc(-c3c(C)noc3C)cnc21` [P-0365, 4-(5-(3,5-dimethylisoxazol-4-yl)-1-(1-(2-hydroxy-2-methylpropyl)-3-methyl-1H-pyrazol-4-yl)-1H-pyrrolo[2,3-b]pyridin-3-yl)-3-(trifluoromethoxy)benzoic acid], the IC50 is 1 to 8 µM.

In the case of `Cc1nn(CC(=O)N(C)C)cc1-n1cc(-c2ccc(C(=O)O)cc2OC(F)(F)F)c2cc(-c3c(C)noc3C)cnc21` [P-0366, 4-(1-(1-(2-(dimethylamino)-2-oxoethyl)-3-methyl-1H-pyrazol-4-yl)-5-(3,5-dimethylisoxazol-4-yl)-1H-pyrrolo[2,3-b]pyridin-3-yl)-3-(trifluoromethoxy)benzoic acid], the IC50 was in the range of 8 to 1000 µM.

Consider `Cc1cc(C(=O)O)cc(OCC(F)F)c1-c1cn(C2CCOCC2)c2ncc(-c3c(C)noc3C)cc12` [P-0367, 3-(2,2-difluoroethoxy)-4-(5-(3,5-dimethylisoxazol-4-yl)-1-(tetrahydro-2H-pyran-4-yl)-1H-pyrrolo[2,3-b]pyridin-3-yl)-5-methylbenzoic acid], for which the IC50 was 1 to 8 µM.

Take `COc1nc(C(=O)O)ccc1-c1cn(C2CCOCC2)c2ncc(-c3c(C)noc3C)cc12` [P-0368, 5-(5-(3,5-dimethylisoxazol-4-yl)-1-(tetrahydro-2H-pyran-4-yl)-1H-pyrrolo[2,3-b]pyridin-3-yl)-6-methoxypicolinic acid]: the IC50 lay in the range of 8 to 1000 µM.
